Test results published in ChEMBL document CHEMBL1201862, “PubChem BioAssay data set” (2004).
The source made the active and inactive calls.

Experiments:
[1] = biological target: Dual specificity protein phosphatase 3 (Homo sapiens, UniProt P51452); assay: VHR1 inhibitor Ki determination, SAR follow-up, biochemical, colorimetric (AID 2004)
[2] = biological target: Melanin-concentrating hormone receptor 1 (Homo sapiens, UniProt Q99705); assay: Fluorescence-based counterscreen for antagonists of the G-protein coupled receptor 7 (GPR7): cell-based high throughput dose response assay to identify antagonists of the melanin-concentrating hormone receptor 1 (MCHR1).; type: functional
Chain of Melanin-concentrating hormone receptor 1 (Q99705 whole entry): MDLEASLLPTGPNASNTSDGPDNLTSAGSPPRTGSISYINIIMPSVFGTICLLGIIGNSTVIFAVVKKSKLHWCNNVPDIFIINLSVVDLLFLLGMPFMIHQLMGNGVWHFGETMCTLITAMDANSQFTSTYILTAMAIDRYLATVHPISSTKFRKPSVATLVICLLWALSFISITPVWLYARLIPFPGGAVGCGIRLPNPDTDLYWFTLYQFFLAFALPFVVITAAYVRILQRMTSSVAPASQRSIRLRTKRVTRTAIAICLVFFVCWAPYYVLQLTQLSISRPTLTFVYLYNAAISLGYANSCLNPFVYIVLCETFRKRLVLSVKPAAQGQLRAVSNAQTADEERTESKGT

Streptococcus [3] = assay: Group A Streptococcus viability loss, dose response, counter-screen for streptokinase expression inhibitor project, luminescence, BacTiterGlo (AID 1915); type: functional, organism-based;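 note: potency for reduction of bacterial viability or growth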
[4] = tested on: Streptococcus sp. 'group A'; assay: growth inhibition of control SK(-) GAS strain, dose response, counter-screen for streptokinase expression inhibitor project, luminescence, kanamycin, BacTiterGlo, confirmation (AID 1900); type: functional, organism-based
Streptokinase A = biological target: T1, Streptokinase A (Streptococcus pyogenes serotype M1, UniProt P10520); assay: S. pyogenes streptokinase expression inhibitors, potency, dose response, plasminogen activation absorbance, OD405 (AID 1914); type: functional, Streptococcus pyogenes M1 GAS;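 note: secreted streptokinase activity via plasminogen activation per viability signal from cell pellet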
T1 sequence (P10520 whole entry): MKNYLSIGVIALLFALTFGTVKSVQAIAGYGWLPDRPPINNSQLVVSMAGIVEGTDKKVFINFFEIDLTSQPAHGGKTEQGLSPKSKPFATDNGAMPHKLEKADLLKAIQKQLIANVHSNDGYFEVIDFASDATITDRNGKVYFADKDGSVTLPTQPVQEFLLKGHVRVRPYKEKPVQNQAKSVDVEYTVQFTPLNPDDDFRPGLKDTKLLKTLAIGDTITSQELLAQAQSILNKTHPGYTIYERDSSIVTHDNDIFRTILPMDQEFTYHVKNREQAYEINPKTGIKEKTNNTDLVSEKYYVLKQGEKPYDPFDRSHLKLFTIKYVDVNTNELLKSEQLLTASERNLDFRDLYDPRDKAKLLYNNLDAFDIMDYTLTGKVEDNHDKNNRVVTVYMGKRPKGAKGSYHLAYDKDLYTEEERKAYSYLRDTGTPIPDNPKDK

Streptococcus [5] = assay: Luminescence Microorganism-Based Dose Response Follow up to Identify Compounds Cytotoxic to Streptococcus. [Related pubchem assays: 1677 (Project Summary), 1915, 1914, 1902 (Retest at Dose), 1900 (Counter Screen), 1662 (Primary HTS)]; type: functional, organism-based
[6] = biological target: Disintegrin and metalloproteinase domain-containing protein 17 (Homo sapiens, UniProt P78536); assay: ADAM17 protease inhibitors, dose response, counter-screen for ADAM10 exosite inhibitor project, biochemical, quenched FRET substrate (AID 743253)
Chain of Disintegrin and metalloproteinase domain-containing protein 17 (P78536 whole entry, the tested form may be a part): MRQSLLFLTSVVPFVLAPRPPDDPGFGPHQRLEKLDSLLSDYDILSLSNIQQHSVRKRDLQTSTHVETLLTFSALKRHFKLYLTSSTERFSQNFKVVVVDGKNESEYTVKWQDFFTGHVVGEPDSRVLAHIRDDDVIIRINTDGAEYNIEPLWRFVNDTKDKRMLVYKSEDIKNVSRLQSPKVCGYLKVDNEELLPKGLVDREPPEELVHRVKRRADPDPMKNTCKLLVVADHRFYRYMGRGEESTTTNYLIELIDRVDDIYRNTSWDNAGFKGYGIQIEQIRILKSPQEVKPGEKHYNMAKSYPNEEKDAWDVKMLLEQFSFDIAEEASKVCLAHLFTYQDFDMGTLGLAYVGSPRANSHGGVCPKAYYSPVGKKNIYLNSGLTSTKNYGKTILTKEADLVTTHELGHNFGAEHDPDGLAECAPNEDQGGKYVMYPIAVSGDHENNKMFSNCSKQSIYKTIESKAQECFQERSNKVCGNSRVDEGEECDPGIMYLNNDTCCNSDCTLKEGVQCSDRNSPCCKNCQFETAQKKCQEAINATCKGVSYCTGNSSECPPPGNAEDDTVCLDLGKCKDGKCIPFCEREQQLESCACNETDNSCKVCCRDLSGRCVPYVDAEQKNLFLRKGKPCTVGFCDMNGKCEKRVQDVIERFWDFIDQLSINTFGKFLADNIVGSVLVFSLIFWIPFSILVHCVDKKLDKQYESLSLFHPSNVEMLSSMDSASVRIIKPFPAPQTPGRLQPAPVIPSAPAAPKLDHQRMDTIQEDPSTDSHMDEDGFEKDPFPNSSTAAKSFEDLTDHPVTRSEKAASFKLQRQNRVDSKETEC

Leucine aminopeptidase = biological target: T2, Leucine aminopeptidase (Plasmodium falciparum 3D7, UniProt Q8IL11); assay: P. falciparum M17LAP inhibitors, primary screen, biochemical, fluorogenic H-Leu-NHMec substrate, 1536-well (AID 1619); type: functional
T2 sequence (Q8IL11 whole entry): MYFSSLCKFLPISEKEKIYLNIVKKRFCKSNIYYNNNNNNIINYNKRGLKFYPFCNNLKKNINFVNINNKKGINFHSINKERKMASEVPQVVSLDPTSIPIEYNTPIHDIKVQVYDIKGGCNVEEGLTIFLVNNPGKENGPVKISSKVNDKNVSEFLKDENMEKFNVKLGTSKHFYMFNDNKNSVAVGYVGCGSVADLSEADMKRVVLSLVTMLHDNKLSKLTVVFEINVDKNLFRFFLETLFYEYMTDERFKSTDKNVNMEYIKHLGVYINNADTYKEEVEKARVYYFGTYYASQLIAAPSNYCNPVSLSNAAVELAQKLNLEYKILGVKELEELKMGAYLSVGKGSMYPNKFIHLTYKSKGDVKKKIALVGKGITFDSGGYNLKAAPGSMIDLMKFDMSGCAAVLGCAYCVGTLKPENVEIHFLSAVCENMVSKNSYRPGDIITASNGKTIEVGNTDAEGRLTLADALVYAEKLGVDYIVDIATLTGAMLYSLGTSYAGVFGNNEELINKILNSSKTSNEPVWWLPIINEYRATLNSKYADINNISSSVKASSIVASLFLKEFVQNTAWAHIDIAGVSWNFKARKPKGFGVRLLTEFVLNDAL

[7] = biological target: Lysosomal acid glucosylceramidase (Homo sapiens, UniProt P04062); assay: Dose response cell-based high throughput screening assay to identify enhancers of beta-glucosidase activity. [Related pubchem assays: 784 ]; type: functional
[8] = biological target: Neurotensin receptor type 1 (Homo sapiens, UniProt P30989); type: functional;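 note: Image-based confirmatory dose-response assay measuring agonist activity at NTR1; NTR1-expressing U2OS osteosarcoma cells imaged for beta-arrestin GFP spot formation; agonist potency where compounds increase beta-arrestin recruitment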
[9] = Luminescence Cell-Based Dose Retest to Confirm Inhibitors of Cancer Stem Cells. [Related pubchem assays (depositor defined):AID2717, AID2721]; type: functional; details: Homo sapiens
[10] = HIV-1 Env-mediated cell fusion inhibitors, dose response, CCR5-tropic Env (AID 2279); type: functional
Aminopeptidase N = Aminopeptidase N (Plasmodium falciparum FcB1/Columbia, UniProt O96935); assay: P. falciparum M1AAP inhibitors, biochemical, fluorogenic H-Leu-NHMec substrate, 1536-well (AID 1445); design: species or system Plasmodium falciparum 3D7, 3D7
Chain of Aminopeptidase N (O96935 whole entry): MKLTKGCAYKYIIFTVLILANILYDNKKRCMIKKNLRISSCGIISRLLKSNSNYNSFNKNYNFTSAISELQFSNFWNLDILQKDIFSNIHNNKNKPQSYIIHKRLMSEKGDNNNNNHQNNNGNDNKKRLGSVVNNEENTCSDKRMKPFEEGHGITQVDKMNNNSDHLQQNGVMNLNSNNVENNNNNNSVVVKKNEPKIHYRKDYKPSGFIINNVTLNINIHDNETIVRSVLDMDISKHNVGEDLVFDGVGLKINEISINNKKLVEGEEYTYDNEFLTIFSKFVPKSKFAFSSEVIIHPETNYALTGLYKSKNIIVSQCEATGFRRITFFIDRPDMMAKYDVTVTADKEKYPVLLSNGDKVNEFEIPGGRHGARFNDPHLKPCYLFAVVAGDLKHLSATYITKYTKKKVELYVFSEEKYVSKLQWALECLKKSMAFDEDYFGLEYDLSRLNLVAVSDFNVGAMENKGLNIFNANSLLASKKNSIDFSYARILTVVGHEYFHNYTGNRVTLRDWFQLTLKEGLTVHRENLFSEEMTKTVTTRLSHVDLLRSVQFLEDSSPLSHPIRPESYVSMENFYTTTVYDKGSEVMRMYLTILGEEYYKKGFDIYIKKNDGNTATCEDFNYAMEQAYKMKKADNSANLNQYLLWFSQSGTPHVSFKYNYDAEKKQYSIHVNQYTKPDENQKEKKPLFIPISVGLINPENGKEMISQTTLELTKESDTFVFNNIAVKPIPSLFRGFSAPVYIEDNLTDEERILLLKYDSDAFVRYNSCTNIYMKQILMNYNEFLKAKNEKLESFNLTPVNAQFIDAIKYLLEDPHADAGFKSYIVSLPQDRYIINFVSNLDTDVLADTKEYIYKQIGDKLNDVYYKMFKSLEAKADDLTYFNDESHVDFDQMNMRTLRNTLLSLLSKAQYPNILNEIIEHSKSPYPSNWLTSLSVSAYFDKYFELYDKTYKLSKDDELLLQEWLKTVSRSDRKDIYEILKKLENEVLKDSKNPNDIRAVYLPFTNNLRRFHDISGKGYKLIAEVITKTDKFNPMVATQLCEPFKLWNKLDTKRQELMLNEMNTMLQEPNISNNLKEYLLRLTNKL

[11] = NIH-3T3 fibroblast cytotoxicity, dose response, cytotoxicity control, cell-based, fluorescence, Alamar Blue, secondary assay (AID 2327); type: functional;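 note: NIH-3T3 mouse fibroblasts cultured with fluconazole at 8 µg/mL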
[12] = C. albicans growth with fluconazole, confirmation, fluorescence, retest (AID 2467); type: functional, cell-based
[13] = inhibitors of Bluetongue virus cytopathic effect, confirmation, arbovirus, BSR cells (AID 1250); type: functional;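 note: protection from viral cytopathic effect measured as cell viability by ATP luminescence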
Fatty acid synthase [14] = biological target: T3, Fatty acid synthase (Homo sapiens, UniProt P49327); assay: FAS thioesterase domain inhibitors, dose response, biochemical, kinetic fluorescence intensity (AID 624326); type: functional;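 note: rate of fluorescence rise from hydrolysis of a fluorogenic O-methyl fluorescein ester substrate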
T3 sequence (P49327 whole entry, the tested form may be a part): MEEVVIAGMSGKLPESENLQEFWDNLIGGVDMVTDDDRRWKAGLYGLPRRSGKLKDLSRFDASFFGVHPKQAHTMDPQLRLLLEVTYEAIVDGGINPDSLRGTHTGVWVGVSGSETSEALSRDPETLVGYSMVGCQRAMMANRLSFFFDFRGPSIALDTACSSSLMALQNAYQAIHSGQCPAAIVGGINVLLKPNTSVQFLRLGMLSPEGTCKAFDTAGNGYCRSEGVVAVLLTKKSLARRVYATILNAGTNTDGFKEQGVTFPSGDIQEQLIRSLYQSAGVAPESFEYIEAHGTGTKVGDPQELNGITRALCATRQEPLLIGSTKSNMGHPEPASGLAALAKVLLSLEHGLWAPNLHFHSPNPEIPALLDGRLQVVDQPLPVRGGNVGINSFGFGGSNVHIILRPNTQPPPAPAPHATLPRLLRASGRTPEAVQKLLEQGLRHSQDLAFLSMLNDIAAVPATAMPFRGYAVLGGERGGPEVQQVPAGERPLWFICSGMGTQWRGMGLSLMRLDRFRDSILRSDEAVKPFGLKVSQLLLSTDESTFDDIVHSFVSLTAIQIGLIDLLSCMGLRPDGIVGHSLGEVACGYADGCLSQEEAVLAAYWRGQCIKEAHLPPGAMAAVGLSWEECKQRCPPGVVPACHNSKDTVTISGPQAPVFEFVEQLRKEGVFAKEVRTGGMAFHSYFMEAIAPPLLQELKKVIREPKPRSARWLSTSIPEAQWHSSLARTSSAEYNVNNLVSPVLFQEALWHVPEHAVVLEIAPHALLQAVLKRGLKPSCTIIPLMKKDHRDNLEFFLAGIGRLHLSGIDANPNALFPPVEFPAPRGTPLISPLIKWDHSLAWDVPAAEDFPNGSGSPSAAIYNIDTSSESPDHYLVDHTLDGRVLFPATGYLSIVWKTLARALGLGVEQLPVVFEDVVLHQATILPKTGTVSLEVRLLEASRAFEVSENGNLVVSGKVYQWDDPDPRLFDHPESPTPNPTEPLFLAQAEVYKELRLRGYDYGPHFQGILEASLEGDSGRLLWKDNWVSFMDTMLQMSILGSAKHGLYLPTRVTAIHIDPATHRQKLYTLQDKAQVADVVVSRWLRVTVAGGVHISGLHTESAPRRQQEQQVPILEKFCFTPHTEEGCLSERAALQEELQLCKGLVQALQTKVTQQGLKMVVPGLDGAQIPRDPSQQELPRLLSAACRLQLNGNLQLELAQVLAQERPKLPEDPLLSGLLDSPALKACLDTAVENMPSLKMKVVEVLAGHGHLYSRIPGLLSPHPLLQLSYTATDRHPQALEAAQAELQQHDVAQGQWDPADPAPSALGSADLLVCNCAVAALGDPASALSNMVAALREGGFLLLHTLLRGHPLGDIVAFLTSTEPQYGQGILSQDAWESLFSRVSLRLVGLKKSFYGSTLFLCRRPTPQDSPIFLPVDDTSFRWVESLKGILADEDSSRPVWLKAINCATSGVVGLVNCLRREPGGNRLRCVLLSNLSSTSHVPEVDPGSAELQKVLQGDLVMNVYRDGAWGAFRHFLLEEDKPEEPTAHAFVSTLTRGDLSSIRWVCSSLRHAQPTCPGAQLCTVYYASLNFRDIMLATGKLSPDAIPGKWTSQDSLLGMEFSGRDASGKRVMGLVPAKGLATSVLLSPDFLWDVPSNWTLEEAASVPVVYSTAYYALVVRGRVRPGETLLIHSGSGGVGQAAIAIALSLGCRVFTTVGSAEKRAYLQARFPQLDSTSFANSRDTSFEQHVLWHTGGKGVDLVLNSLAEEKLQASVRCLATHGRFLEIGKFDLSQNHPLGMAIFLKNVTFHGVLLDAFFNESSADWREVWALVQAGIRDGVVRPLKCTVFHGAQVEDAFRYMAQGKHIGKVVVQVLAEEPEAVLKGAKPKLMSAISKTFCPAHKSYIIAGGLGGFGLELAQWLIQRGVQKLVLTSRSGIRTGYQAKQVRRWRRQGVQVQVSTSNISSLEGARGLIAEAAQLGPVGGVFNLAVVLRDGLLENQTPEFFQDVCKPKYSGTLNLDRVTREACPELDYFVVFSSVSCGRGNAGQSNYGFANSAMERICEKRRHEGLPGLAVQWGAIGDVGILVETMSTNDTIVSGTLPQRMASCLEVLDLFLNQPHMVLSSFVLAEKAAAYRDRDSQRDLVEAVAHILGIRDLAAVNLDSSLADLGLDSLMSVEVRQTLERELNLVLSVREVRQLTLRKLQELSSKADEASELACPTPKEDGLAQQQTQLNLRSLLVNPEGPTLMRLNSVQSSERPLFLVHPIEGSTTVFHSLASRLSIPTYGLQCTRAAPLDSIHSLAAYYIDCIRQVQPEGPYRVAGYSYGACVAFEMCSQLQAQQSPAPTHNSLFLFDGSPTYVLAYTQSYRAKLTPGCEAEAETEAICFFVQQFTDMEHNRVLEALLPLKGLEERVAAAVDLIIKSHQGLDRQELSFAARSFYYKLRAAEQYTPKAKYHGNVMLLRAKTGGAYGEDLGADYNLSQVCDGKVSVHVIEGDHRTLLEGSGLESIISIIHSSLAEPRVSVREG

Fatty acid synthase [15] = biological target: T3, Fatty acid synthase; assay: FAS thioesterase domain inhibitors, dose response, biochemical, endpoint fluorescence intensity, uHTS hits (AID 624327); type: functional;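 note: fluorescence from hydrolysis of an O-methyl fluorescein acyl ester substrate by the enzyme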
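Throughout, for AC50: cells exposed to compound for roughly 70 hours or longer before luminescence read.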

Chain of Dual specificity protein phosphatase 3 (P51452 whole entry): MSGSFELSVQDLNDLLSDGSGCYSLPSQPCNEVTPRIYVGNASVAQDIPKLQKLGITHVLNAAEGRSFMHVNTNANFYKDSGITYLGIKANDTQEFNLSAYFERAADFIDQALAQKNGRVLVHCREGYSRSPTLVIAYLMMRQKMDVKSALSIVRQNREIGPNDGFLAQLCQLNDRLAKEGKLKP

With `Cc1ccc(-c2ccccc2)n1-c1ccc(O)c(C(=O)O)c1` as the compound, how does the Ki [1] read?
The Ki was 80.3 µM (inactive).

For `N=C(N)NS(=O)(=O)c1ccc(NC(=S)NC(=O)Cc2ccc(Cl)cc2)cc1`, which IC50 [2] is on record?
The IC50 was 21.8 µM (not active).

For `Cc1cccc(C)c1OCC(O)Cn1c2ccccc2c2ccccc21` (stereo not drawn), which EC50 (Streptococcus [3]) is on record?
Its EC50 is 7.9 µM (active).

What about the EC50 [4] of the same compound?
Its EC50 is 6.75 µM (active).

What about the EC50 (Streptokinase A) of the same compound?
Its EC50 is 3.98 µM (active).

And the EC50 (Streptococcus [5])?
Its EC50 is 9.21 µM (active).

And the IC50 [6]?
Its IC50 is > 69.5 µM (inactive).

Which results are given for `O=C(CN1C(=O)c2ccccc2S1(=O)=O)NCCSC1CCCCC1`?
IC50 (Leucine aminopeptidase): 9.32 µM (active); EC50 [7]: > 10 µM (not active)

For `CC(C)CN1C(=O)/C(=C/c2c[nH]nc2-c2ccccc2)SC1=S`, which EC50 [8] is on record?
The EC50 was 15 µM (active).

And the AC50 [9]?
Its AC50 is 2.59 µM (active).

With `COc1cc(/C=C(\C#N)c2nc3ccccc3s2)cc([N+](=O)[O-])c1O` as the compound, how does the IC50 [10] read?
The IC50 was > 50 µM (active).

And the IC50 (Aminopeptidase N)?
The IC50 was 11 µM (active).

What about the EC50 [11] of the same compound?
Its EC50 is > 150 µM (inactive).

And the EC50 [12]?
The EC50 was > 38 µM (not active).

What about the IC50 [13] of the same compound?
The IC50 was 33.7 µM (active).

And the IC50 (Fatty acid synthase [14])?
Its IC50 is 10 µM (active).

What about the IC50 (Fatty acid synthase [15]) of the same compound?
The IC50 was 12.4 µM (active).
